Among the data in BindingDB's records for doi:10.1074/jbc.M109.089946 (Merck Research Laboratories, 2010) are IC50 values, retold here.

Molecules are shown by their SMILES.

The target in assay [1] is T1, 3-phosphoinositide-dependent protein kinase 1 (Homo sapiens, UniProt O15530).
T1 sequence (O15530 whole entry): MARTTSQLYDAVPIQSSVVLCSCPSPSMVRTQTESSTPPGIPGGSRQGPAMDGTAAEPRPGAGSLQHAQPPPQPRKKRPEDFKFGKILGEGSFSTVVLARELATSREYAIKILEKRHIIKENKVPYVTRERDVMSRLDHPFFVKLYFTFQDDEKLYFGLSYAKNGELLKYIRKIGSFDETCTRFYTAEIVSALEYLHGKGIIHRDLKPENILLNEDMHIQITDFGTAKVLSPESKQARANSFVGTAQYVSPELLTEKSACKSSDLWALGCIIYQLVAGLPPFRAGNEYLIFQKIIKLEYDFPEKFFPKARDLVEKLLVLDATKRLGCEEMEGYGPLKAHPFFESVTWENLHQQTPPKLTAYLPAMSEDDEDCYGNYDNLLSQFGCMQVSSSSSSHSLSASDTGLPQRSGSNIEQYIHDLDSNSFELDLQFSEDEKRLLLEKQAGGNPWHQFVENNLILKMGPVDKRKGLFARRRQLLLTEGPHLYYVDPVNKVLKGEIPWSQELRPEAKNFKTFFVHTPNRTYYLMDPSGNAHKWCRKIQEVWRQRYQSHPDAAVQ
The assay can be described thus: TR-Fret Assay. The source says: 1536-Well TR-Fret uHTS assay PDK1-tide1 peptide substrate.

Assay [2] deals with 3-phosphoinositide-dependent protein kinase 1 (Homo sapiens) (UniProt O15530). The assay can be described thus: 384-Well TR-Fret assay using AKT-tide peptide substrate.

In the case of `CCCCCNC(=O)O[C@@H]1CC[C@@H]2[C@@H](C(=O)Nc3ccc(N(C)C)cc3)C[C@H]1N2CCC(C)C` [Alkaloid 2], the IC50 in assay [1] was 18000 nM; in assay [2] it was more than 30000 nM.

For the molecule `Cc1[nH]nc2c1c(=O)n(CCCN)c1ccc(Br)cc21` [Compound # 1], the 50% inhibitory concentration (IC50) in assay [1] turned out to be 11 nM; in assay [2], 14 nM.

For the molecule `CC(C)(C)c1nc2c3ccc(F)cc3c3c(=O)[nH]ccc3c2[nH]1` [Jak Inhibitor 1], the values for the half-maximal inhibitory concentration (IC50) in assay [1] and in assay [2] were 20 nM and 28 nM, respectively.
